What is called logD is lipophilicity at a set pH, counting ionised and neutral species. Higher therefore signals a more lipophilic compound.

This is an account of results in the SangsterLogP compilation.

A short description of one data set: method code SF, from DOI: 10.1111/j.2042-7158.1992.tb14369.x, PMID: 1350635. The following applies: pH 13.0.
The compound `CC(C)(C)NCC(O)COc1ccccc1C#N` (configuration not stated) had a logD of 1.97.

The next data set can be described thus: method code SF-AS, from DOI: 10.1111/j.2042-7158.1992.tb14369.x, PMID: 1350635. The following applies: pH 13.0.
Take `CC(=O)c1cc2cccc(OCC(O)CNC(C)C)c2o1` (configuration not stated): the log distribution coefficient (logD) worked out at 2.02.
The same measure, in the same setting: with `CC(C)NCC(O)COc1ccc(CCOCC2CC2)cc1` (configuration not stated) the figure was 2.81.
`C#CCOc1ccccc1OCC(O)CNC(C)(C)C` (configuration not stated) yielded a logD of 2.32.
Still for that read-out and setting: with `CC(C)NCC(O)COc1ccccc1C1CC1` (configuration not stated) the figure was 3.07.
Consider `CC(C)NCC(O)COc1ccccc1C1CC2CCC1C2` (configuration not stated), for which the logD worked out at 4.17.
The same measure, in the same setting: to `Cc1cc2c(OCC(O)CNC(C)C)cccc2[nH]1` (configuration not stated) belongs 2.3; to `CC(C)NCC(O)COc1ccc(COCCOC(C)C)cc1` (configuration not stated), 1.87.
On the same count and under the same terms, to `COc1ccccc1OCC(O)CNC(C)C` (configuration not stated) belongs 1.69.
The compound `CC(=O)Nc1ccc(OCC(O)CNC(C)C)c(C(C)=O)c1` (configuration not stated) gave a log distribution coefficient (logD) of 0.94.
On the same count and under the same terms, to `CNC(=O)COc1ccccc1OCC(O)CNC(C)(C)C` (configuration not stated) belongs 1.36.
Same read-out and setting: to `CC(C)NC[C@H](O)COc1ccc(OCCOCCc2ccc(F)cc2)cc1` belongs 3.7.
